Reference: PMC7576618 (British Journal of Clinical Pharmacology, 2020)

What was measured:
healthy subjects [1] = test: MAD study: safety and tolerability; format: in vivo, human
healthy subjects [2] = test: SAD study: safety and tolerability; format: in vivo, human; details: SAD Part B
[3] = MAD Cohort 1, 5–10 mg fed (n = 8)
[4] = MAD Cohort 2, 5–20 mg fed (n = 8)
[5] = MAD Cohort 3, 5–40 mg fed (n = 8)
[6] = MAD Cohort 4, 5–60 mg fed (n = 8)
[7] = MAD Cohort 5, 10–80 mg fed (n = 8)
[8] = MAD Cohort 6, 10–80 mg fed (n = 7)
[9] = MAD, 80 mg MP in Cohort 5, data not shown

## CC(C)[C@@H]1CC[C@@H](C)C[C@H]1OC(=O)O[C@@H](C)OC(=O)[C@H]1[C@@H]2C[C@H](F)[C@@](N)(C(=O)O)[C@@H]21.O=S(=O)(O)c1ccccc1 [TS‐134, (1S,2S,3S,5R,6S)‐2‐amino‐3‐ fluoro‐6‐({(1S)‐1‐[({[(1R,2S,5R)‐5‐methyl‐2‐(propan‐2‐yl)cyclohexyl]oxy}carbonyl)oxy]ethoxy}carbonyl)bicyclo[3.1.0]hexane‐2‐carboxylic acid monobenzenesulfonate]
Healthy subjects [1]; 14‐day MAD, titration schemes under fed conditions
  dose up to which multiple dose titration was tolerated: up to 80 mg
Healthy subjects [1]; [3]
  Abnormal dreams: 0 Number of subjects (%)
  Dizziness: 0 Number of subjects (%)
  Headache: 1 (12.5) Number of subjects (%)
  Insomnia: 0 Number of subjects (%)
  Nausea: 2 (25.0) Number of subjects (%)
  Number of subjects with at least 1 TEAE: 5 (62.5) Number of subjects (%)
  Post lumbar puncture syndrome: 0 Number of subjects (%)
  Pruritus: 0 Number of subjects (%)
  Somnolence: 3 (37.5) Number of subjects (%)
  Total number of TEAEs: 11
  Vomiting: 0 Number of subjects (%)
Healthy subjects [1]; [4]
  Abnormal dreams: 0 Number of subjects (%)
  Dizziness: 1 (12.5) Number of subjects (%)
  Headache: 3 (37.5) Number of subjects (%)
  Insomnia: 0 Number of subjects (%)
  Nausea: 3 (37.5) Number of subjects (%)
  Number of subjects with at least 1 TEAE: 5 (62.5) Number of subjects (%)
  Post lumbar puncture syndrome: 0 Number of subjects (%)
  Pruritus: 0 Number of subjects (%)
  Somnolence: 1 (12.5) Number of subjects (%)
  Total number of TEAEs: 17
  Vomiting: 0 Number of subjects (%)
Healthy subjects [1]; [5]
  Abnormal dreams: 0 Number of subjects (%)
  Dizziness: 3 (37.5) Number of subjects (%)
  Headache: 3 (37.5) Number of subjects (%)
  Insomnia: 0 Number of subjects (%)
  Nausea: 2 (25.0) Number of subjects (%)
  Number of subjects with at least 1 TEAE: 5 (62.5) Number of subjects (%)
  Post lumbar puncture syndrome: 0 Number of subjects (%)
  Pruritus: 0 Number of subjects (%)
  Somnolence: 1 (12.5) Number of subjects (%)
  Total number of TEAEs: 16
  Vomiting: 1 (12.5) Number of subjects (%)
Healthy subjects [1]; [6]
  Abnormal dreams: 2 (25.0) Number of subjects (%)
  Dizziness: 1 (12.5) Number of subjects (%)
  Headache: 5 (62.5) Number of subjects (%)
  Insomnia: 3 (37.5) Number of subjects (%)
  Nausea: 3 (37.5) Number of subjects (%)
  Number of subjects with at least 1 TEAE: 8 (100) Number of subjects (%)
  Post lumbar puncture syndrome: 0 Number of subjects (%)
  Pruritus: 1 (12.5) Number of subjects (%)
  Somnolence: 1 (12.5) Number of subjects (%)
  Total number of TEAEs: 26
  Vomiting: 2 (25.0) Number of subjects (%)
Healthy subjects [1]; [7]
  Abnormal dreams: 0 Number of subjects (%)
  Dizziness: 0 Number of subjects (%)
  Headache: 3 (37.5) Number of subjects (%)
  Insomnia: 0 Number of subjects (%)
  Nausea: 3 (37.5) Number of subjects (%)
  Number of subjects with at least 1 TEAE: 7 (87.5) Number of subjects (%)
  Post lumbar puncture syndrome: 0 Number of subjects (%)
  Pruritus: 0 Number of subjects (%)
  Somnolence: 1 (12.5) Number of subjects (%)
  Total number of TEAEs: 30
  Vomiting: 0 Number of subjects (%)
Healthy subjects [1]; [8]
  Abnormal dreams: 0 Number of subjects (%)
  Dizziness: 3 (42.9) Number of subjects (%)
  Headache: 1 (14.3) Number of subjects (%)
  Insomnia: 1 (14.3) Number of subjects (%)
  Nausea: 2 (28.6) Number of subjects (%)
  Number of subjects with at least 1 TEAE: 6 (85.7) Number of subjects (%)
  Post lumbar puncture syndrome: 0 Number of subjects (%)
  Pruritus: 3 (42.9) Number of subjects (%)
  Somnolence: 2 (28.6) Number of subjects (%)
  Total number of TEAEs: 25
  Vomiting: 0 Number of subjects (%)
Healthy subjects [1]; MAD Total TS‐134 (n = 47)
  Abnormal dreams: 2 (4.3) Number of subjects (%)
  Dizziness: 8 (17.0) Number of subjects (%)
  Headache: 16 (34.0) Number of subjects (%)
  Insomnia: 4 (8.5) Number of subjects (%)
  Nausea: 15 (31.9) Number of subjects (%)
  Number of subjects with at least 1 TEAE: 36(76.6) Number of subjects (%)
  Post lumbar puncture syndrome: 0 Number of subjects (%)
  Pruritus: 4 (8.5) Number of subjects (%)
  Somnolence: 9 (19.1) Number of subjects (%)
  Total number of TEAEs: 125
  Vomiting: 3 (6.4) Number of subjects (%)
Healthy subjects [1]; MAD study
  discontinuations due to TEAEs: no discontinuations due to TEAEs
Healthy subjects [1]; [9]
  reports of severe anxiety: 1 report
  reports of severe fatigue: 1 report
Healthy subjects [1]; MAD, total TS‐134 group
  incidence of dizziness: 17.0%
  incidence of headache: 34.0%
  incidence of nausea: 31.9%
  incidence of somnolence: 19.1%
  incidence of vomiting: 6.4%
Healthy subjects [2]; fed 10 mg TS‐134
  incidence of headache: 25.0%
  incidence of post lumbar puncture syndrome: 37.5%
  incidence of somnolence: 25.0%
  incidence of vomiting: 25.0%
Healthy subjects [2]; 10 mg fed (n = 8)
  Abnormal dreams: 0 Number of subjects (%)
  Dizziness: 0 Number of subjects (%)
  Headache: 2 (25.0) Number of subjects (%)
